{"source": "patent US12458654B2", "about": "“Methods of conditioning patients for T cell therapy” (Kite Pharma Inc., priority 2015, dated 2025)", "key": {"[1]": {"conditions": "human, in vivo"}, "[2]": {"system": "serum levels of cytokine analytes", "conditions": "in vivo"}, "[3]": {"system": "serum levels of cytokine analytes", "description": "T cell products were generated by transduction of autologous lymphocytes with a g-murine retrovirus carrying an anti-CD19 CAR construct gene, followed by expansion to achieve desired cell dose. Anti-CD19 CAR+ T cell product characteristics were evaluated at time of harvest, or after co-culture with CD19+ cells, by flow cytometry and multiplex cytokine analysis of co-culture supernatants. CAR+ T cell co-culture for product characterization was performed with K562-CD19 cells or K562-NGFR control cells, at an effector to target ratio of 1:1. Standard incubation time was 18 hours.\nCytokine and chemokine levels were measured using EMDmillipore Luminex® xMAP® multiplex assays. Data acquisition and analysis were performed using a Luminex 200™ instrument and xPONENT® 3.1 data analysis software. For IL-7, a human IL-7 Quantikine HS ELISA Kit (HS750) was used with samples run neat per manufacturer's guidelines. The frequency of CAR T cells in circulation was measured by a quantitative PCR analysis. Patients were administered a preconditioning regimen comprising of 300 mg/m^2 cyclophosphamide on days −5 and −4, and 30 mg/m^2 fludarabine on days −5, −4, and −3. Patient sera was collected prior to administration of cyclophosphamide and fludarabine between days −12 and −5 (“pre”), immediately before administration of CAR+ T cells on day 0 (“post”) and on select days following CAR+ T cell administration up to day 18. The serum concentrations of GF-CSF, IL-2, MCP-1, IL-6, IL-10, MCP-4, CRP, IFN gamma, Granzyme A, IL-15, IL-5, Granzyme B, IL-8, IP-10, MIP-1b, PLGF, IL-16, TARC, Eotaxin-3, sICAM-1, sVCAM-1, and SAA were measured pre- and post-conditioning and on select days after administration of CAR+ T cells, as shown in FIG. 6."}, "[4]": {"conditions": "300 mg/m^2 cyclophosphamide, 30 mg/m^2 fludarabine, pre vs day 0"}}, "data": [{"compound": "O=P1(N(CCCl)CCCl)NCCCO1", "note": "(centres unmarked) [cyclophosphamide]", "values": [{"measurement": "Incidence of dose limiting toxicity (DLT)", "setting": "[1]", "value": 29, "unit": "%"}]}, {"compound": "cyclophosphamide and fludarabine", "values": [{"measurement": "CRP increase, average", "setting": "[2]", "value": "about 10 fold"}, {"measurement": "CRP increase, range", "setting": "[2]", "value": "essentially no change to an increase of about 25 fold"}, {"measurement": "CRP level in patient sera after conditioning", "setting": "[2]", "value": "increased in some patients and remained stable or decreased in others"}, {"measurement": "Change in serum CRP", "setting": "[2]", "value": "essentially no change"}, {"measurement": "Change in serum PLGF", "setting": "[2]", "value": "only a slight increase"}, {"measurement": "Change in serum VEGF-D", "setting": "[2]", "value": "essentially no change"}, {"measurement": "Change in serum sICAM-1", "setting": "[2]", "value": "essentially no change"}, {"measurement": "Decrease of serum MIP-1β", "setting": "[2]", "value": "about 50%"}, {"measurement": "IL-15 increase relative to baseline", "setting": "[2]", "value": "less than 10 fold"}, {"measurement": "IL-15 increase relative to baseline, average", "setting": "[2]", "value": "about 35 fold"}, {"measurement": "IL-15 level in patient sera after conditioning", "setting": "[2]", "value": "at least some increase"}, {"measurement": "MCP-1 increase", "setting": "[2]", "value": "less than 4 fold"}, {"measurement": "MCP-1 increase, average", "setting": "[2]", "value": "about 5 fold"}, {"measurement": "MCP-1 level in patient sera after conditioning", "setting": "[2]", "value": "at least some increase"}, {"measurement": "MIP-1 β level in patient sera after conditioning", "setting": "[2]", "value": "increased in some patients and remained stable or decreased in others"}, {"measurement": "MIP-10 levels increase, average", "setting": "[2]", "value": "about 1.5 fold"}, {"measurement": "MIP-10 levels increase, range", "setting": "[2]", "value": "essentially no change to an increase of about 3 fold"}, {"measurement": "PLGF increase, average", "setting": "[2]", "value": "about 30 fold"}, {"measurement": "PLGF increase, range", "setting": "[2]", "value": "about 2 fold or less to an increase of about over 100 fold"}, {"measurement": "PLGF level in patient sera after conditioning", "setting": "[2]", "value": "at least some increase"}, {"measurement": "VEGF-D increase, average", "setting": "[2]", "value": "about 3 fold"}, {"measurement": "VEGF-D increase, range", "setting": "[2]", "value": "essentially no change to an increase of about 6 fold"}, {"measurement": "VEGF-D level in patient sera after conditioning", "setting": "[2]", "value": "increased in some patients and remained stable or decreased in others"}, {"measurement": "sICAM-1 increase, average", "setting": "[2]", "value": "about 3 fold"}, {"measurement": "sICAM-1 increase, range", "setting": "[2]", "value": "essentially no change to an increase of about 4.5 fold"}, {"measurement": "sICAM-1 level in patient sera after conditioning", "setting": "[2]", "value": "increased in some patients and remained stable or decreased in others"}, {"measurement": "Change in serum IP-10", "setting": "[2]; ip", "value": "essentially no change"}, {"measurement": "IP-10 increase, average", "setting": "[2]; ip", "value": "about 3.5 fold"}, {"measurement": "IP-10 level in patient sera after conditioning", "setting": "[2]; ip", "value": "increased in some patients and remained stable or decreased in others"}, {"measurement": "Serum concentration of CRP following conditioning", "setting": "[3]; [4]", "value": "significantly increased"}, {"measurement": "Serum concentration of IL-5 following conditioning", "setting": "[3]; [4]", "value": "Increases"}, {"measurement": "Serum concentration of IL-7 following conditioning", "setting": "[3]; [4]", "value": "significantly increased"}, {"measurement": "Serum concentration of IL-10 following conditioning", "setting": "[3]; [4]", "value": "Increases"}, {"measurement": "Serum concentration of IL-15 following conditioning", "setting": "[3]; [4]", "value": "significantly increased"}, {"measurement": "Serum concentration of IP-10 following conditioning", "setting": "[3]; [4]", "value": "Increases"}, {"measurement": "Serum concentration of MCP-1 following conditioning", "setting": "[3]; [4]", "value": "significantly increased"}, {"measurement": "Serum concentration of PLGF following conditioning", "setting": "[3]; [4]", "value": "significantly increased"}, {"measurement": "Serum concentration of s-ICAM1 following conditioning", "setting": "[3]; [4]", "value": "Increases"}, {"measurement": "Serum perform after conditioning", "setting": "[3]; [4]", "value": "decrease"}, {"measurement": "Markers showing changes in a majority of patients, associated with p<0.05", "setting": "[3]; FIG. 14, markers measured prior to CAR T cell infusion", "value": "7 out of 41 measured markers"}]}]}
